# Measured values reported in patent publication US20230147364A1, “PROPHYLACTIC OR THERAPEUTIC AGENT FOR RNA VIRUS-RELATED DISEASES” (priority 2020, published 2023).
# Structures can show the parent of a compound that is named as a salt.
# Columns and labels:
# [1] = system: Sendai virus (SeV); assay: microbe, parasite or virus in culture; assay type: cell-based; conditions: for IC50: Respirovirus muris, read-out: IC50, infection rate of SeV
# [2] = system: VSV-G; assay type: cell-based, vesicular stomatitis virus
# [3] = system: Ebola trVLP
# [4] = system: SARS-CoV-2; assay: microbe, parasite or virus in culture; assay type: cell-based; conditions: for IC50: Severe acute respiratory syndrome coronavirus 2, Vero C1008, read-out: IC50, infection rate of SARS-CoV-2
# [5] = system: Sendai virus (SeV); assay type: cell-based; for Score (number of EGFP-positive cells, value subjected to correction between batches): test concentration or dose not given here
# [6] = system: Ebola trVLP; assay: microbe, parasite or virus in culture; conditions: Zaire ebolavirus, Huh-7, read-out: IC50, Ebola trVLP infection
# [7] = system: pseudo-typed VSV having a SARS-CoV spike protein (SARS-CoV-S); assay: microbe, parasite or virus in culture; assay type: cell-based; conditions: Vesicular stomatitis virus, Vero C1008, 20 h, read-out: IC50, infection with pseudo-typed VSV having SARS-CoV spike protein
# [8] = system: VSVΔG-SARS2-S (pseudo-type VSV with SARS-CoV-2 spike protein); assay: microbe, parasite or virus in culture; assay type: cell-based; conditions: Vesicular stomatitis virus, Vero C1008, 20 h, read-out: IC50, VSVΔG-SARS2-S infection
molecule,measurement,setting,value
CC(C)(C)[C@]1(O)CCN2Cc3cccc4c3[C@H](c3ccccc3CC4)[C@@H]2C1.Cl [(+)-Butaclamol hydrochloride],"Score (number of EGFP-positive cells, value subjected to correction between batches)",[1],226.08
CN(C)CCC=C1c2ccccc2CCc2ccccc21 [Amitriptyline hydrochloride],"Score (number of EGFP-positive cells, value subjected to correction between batches)",[1],192.61
O=C1CCc2ccc(OCCCCN3CCN(c4cccc(Cl)c4Cl)CC3)cc2N1 [Aripiprazole],"Score (number of EGFP-positive cells, value subjected to correction between batches)",[1],86.95
Cc1ccc(-c2cc(C(F)(F)F)nn2-c2ccc(S(N)(=O)=O)cc2)cc1 [Celecoxib],"Score (number of EGFP-positive cells, value subjected to correction between batches)",[1],208.69
O=C(O)COCCN1CCN(C(c2ccccc2)c2ccc(Cl)cc2)CC1 (stereo not drawn) [Cetirizine dihydrochloride],"Score (number of EGFP-positive cells, value subjected to correction between batches)",[1],202.89
CN(C)CCCN1c2ccccc2Sc2ccc(Cl)cc21 [Chlorpromazine hydrochloride],"Score (number of EGFP-positive cells, value subjected to correction between batches)",[1],75.36
"CCN(CC)CCOc1ccc(/C(=C(/Cl)c2ccccc2)c2ccccc2)cc1 [Clomifene, clomifene]",infection-inhibiting effect on VSV-G,[2],no infection-inhibiting effect was observed
same,antiviral activity against Ebola trVLP infection,[3],inhibit the Ebola trVLP infection
same,effect on virus: Ebola virus,[3],+
same,effect on virus: SARS-CoV-2,[4],+
CC1=NS(=O)(=O)c2cc(Cl)ccc2N1 [Diazoxide],"Score (number of EGFP-positive cells, value subjected to correction between batches)",[1],173.91
CC(CCc1ccc(O)cc1)NCCc1ccc(O)c(O)c1 (stereo not drawn) [Dobutamine hydrochloride],"Score (number of EGFP-positive cells, value subjected to correction between batches)",[1],69.56
O=c1[nH]c2ccccc2n1CCCN1CCC(n2c(=O)[nH]c3cc(Cl)ccc32)CC1 [Domperidone],"Score (number of EGFP-positive cells, value subjected to correction between batches)",[1],139.13
CCOC(=O)C1=C(C)NC(C)=C(C(=O)OC)C1c1cccc(Cl)c1Cl (stereo not drawn) [Felodipine],"Score (number of EGFP-positive cells, value subjected to correction between batches)",[1],133.33
COc1ccc(Cl)cc1C(=O)NCCc1ccc(S(=O)(=O)NC(=O)NC2CCCCC2)cc1 [Glibenclamide],"Score (number of EGFP-positive cells, value subjected to correction between batches)",[1],202.89
CNCCCC12CCC(c3ccccc31)c1ccccc12 [Maprotiline hydrochloride],"Score (number of EGFP-positive cells, value subjected to correction between batches)",[1],191.30
Nc1cc(N2CCCCC2)nc(N)[n+]1[O-] [Minoxidil],"Score (number of EGFP-positive cells, value subjected to correction between batches)",[1],226.08
COc1ccccc1N1CCN(CC(O)COc2cccc3ccccc23)CC1 (stereo not drawn) [Naftopidil],"Score (number of EGFP-positive cells, value subjected to correction between batches)",[1],214.49
O=C(NCCO[N+](=O)[O-])c1cccnc1 [Nicorandil],"Score (number of EGFP-positive cells, value subjected to correction between batches)",[1],185.50
CC(COc1ccccc1)N(CCCl)Cc1ccccc1 (stereo not drawn) [Phenoxybenzamine hydrochloride],"Score (number of EGFP-positive cells, value subjected to correction between batches)",[1],162.31
"CCc1ccc(CCOc2ccc(CC3SC(=O)NC3=O)cc2)nc1 (stereo not drawn) [Pioglitazone, pioglitazone]",antiviral activity against Ebola trVLP infection,[3],did not show significant antiviral activity
same,effect on virus: Ebola virus,[3],−
same,"Score (number of EGFP-positive cells, value subjected to correction between batches)",[1],173.91
same,effect on virus: Sendai virus,[1],+
same,IC50,[1],4.9 µM
same,antiviral activity against SARS-CoV-2 infection,[4],partially suppressed virus infection at a high concentration
same,effect on virus: SARS-CoV-2,[4],+
same,amount of the EGFP mRNA,[5],significantly and markedly reduced
"O=C(Nc1cccc2c(=O)cc(-c3nnn[nH]3)oc12)c1ccc(OCCCCc2ccccc2)cc1 [Pranlukast, pranlukast]",antiviral activity against Ebola trVLP infection,[3],did not show significant antiviral activity
same,effect on virus: Ebola virus,[3],−
same,"Score (number of EGFP-positive cells, value subjected to correction between batches)",[1],162.31
same,effect on virus: Sendai virus,[1],+
same,IC50,[1],5 µM
same,antiviral activity against SARS-CoV-2 infection,[4],"tended to reduce the infection rate of SARS-CoV-2, which was not significant"
same,effect on virus: SARS-CoV-2,[4],N.S.
same,amount of the EGFP mRNA,[5],significantly and markedly reduced
CC(CN1c2ccccc2Sc2ccccc21)N(C)C (stereo not drawn) [Promethazine hydrochloride],"Score (number of EGFP-positive cells, value subjected to correction between batches)",[1],231.88
CCCCC[C@H](O)/C=C/[C@H]1[C@H](O)CC(=O)[C@@H]1C/C=C\CCCC(=O)O [Prostaglandin E2],"Score (number of EGFP-positive cells, value subjected to correction between batches)",[1],208.69
COc1ccc(CN(CCN(C)C)c2ccccn2)cc1 [Pyrilamine maleate],"Score (number of EGFP-positive cells, value subjected to correction between batches)",[1],185.50
OCCOCCN1CCN(C2=Nc3ccccc3Sc3ccccc32)CC1 [Quetiapine fumarate],"Score (number of EGFP-positive cells, value subjected to correction between batches)",[1],133.33
O=C(c1ccc(OCCN2CCCCC2)cc1)c1c(-c2ccc(O)cc2)sc2cc(O)ccc12 [Raloxifene hydrochloride],"Score (number of EGFP-positive cells, value subjected to correction between batches)",[1],57.97
"O=C(c1ccc(OCCN2CCCCC2)cc1)c1c(-c2ccc(O)cc2)sc2cc(O)ccc12 [Raloxifene, raloxifene]",infection-inhibiting effect on VSV-G,[2],no infection-inhibiting effect was observed
same,effect on virus: Ebola virus,[3],+
same,infection-inhibiting activity versus cytotoxicity (cell viability),[3],significant dissociation between the infection-inhibiting activity and the cytotoxicity
same,effect on virus: Sendai virus,[1],+
same,IC50,[1],4.3 µM
same,effect on virus: SARS-CoV-2,[4],+
same,IC50,[4],7.1 µM
same,IC50,[6],0.88 µM
same,IC50,[7],4.1 µM
same,amount of the EGFP mRNA,[5],significantly and markedly reduced
same,IC50,[8],3.9 µM
"CO[C@H]1/C=C/O[C@@]2(C)Oc3c(C)c(O)c4c(O)c(c(/C=N/N5CCN(C)CC5)c(O)c4c3C2=O)NC(=O)/C(C)=C\C=C\[C@H](C)[C@H](O)[C@@H](C)[C@@H](O)[C@@H](C)[C@H](OC(C)=O)[C@@H]1C [Rifampin, rifampin]",antiviral activity against Ebola trVLP infection,[3],did not show significant antiviral activity
same,effect on virus: Ebola virus,[3],−
same,"Score (number of EGFP-positive cells, value subjected to correction between batches)",[1],75.36
same,effect on virus: Sendai virus,[1],+
same,IC50,[1],3.9 µM
same,antiviral activity against SARS-CoV-2 infection,[4],"tended to reduce the infection rate of SARS-CoV-2, which was not significant"
same,effect on virus: SARS-CoV-2,[4],N.S.
same,amount of the EGFP mRNA,[5],significantly and markedly reduced
CS(=O)(=O)c1ccc(C2=C(c3ccccc3)C(=O)OC2)cc1 [Rofecoxib],"Score (number of EGFP-positive cells, value subjected to correction between batches)",[1],202.89
CC1=C(CC(=O)O)c2cc(F)ccc2/C1=C\c1ccc([S+](C)[O-])cc1 (stereo not drawn) [Sulindac],"Score (number of EGFP-positive cells, value subjected to correction between batches)",[1],127.53
"CC/C(=C(\c1ccccc1)c1ccc(OCCN(C)C)cc1)c1ccccc1 [Tamoxifen, tamoxifen]",antiviral activity against Ebola trVLP infection,[3],inhibit the Ebola trVLP infection
same,effect on virus: Ebola virus,[3],+
same,effect on virus: SARS-CoV-2,[4],+
CSc1ccc2c(c1)N(CCC1CCCCN1C)c1ccccc1S2 (stereo not drawn) [Thioridazine hydrochloride],"Score (number of EGFP-positive cells, value subjected to correction between batches)",[1],217.78
"CN(C)CCOc1ccc(/C(=C(/CCCl)c2ccccc2)c2ccccc2)cc1 [Toremifene, toremifene]",infection-inhibiting effect on VSV-G,[2],no infection-inhibiting effect was observed
same,antiviral activity against Ebola trVLP infection,[3],inhibit the Ebola trVLP infection
same,effect on virus: Ebola virus,[3],+
same,effect on virus: SARS-CoV-2,[4],+
same,IC50,[4],10 µM
same,IC50,[7],7.3 µM
same,IC50,[8],5.3 µM
COc1cc(C(=O)NS(=O)(=O)c2ccccc2C)ccc1Cc1cn(C)c2ccc(NC(=O)OC3CCCC3)cc12 [Zafirlukast],"Score (number of EGFP-positive cells, value subjected to correction between batches)",[1],156.52
"CC(c1cc2ccccc2s1)N(O)C(N)=O (stereo not drawn) [Zileuton, zileuton]",antiviral activity against Ebola trVLP infection,[3],did not show significant antiviral activity
same,effect on virus: Ebola virus,[3],−
same,"Score (number of EGFP-positive cells, value subjected to correction between batches)",[1],214.49
same,effect on virus: Sendai virus,[1],+
same,IC50,[1],4.5 µM
same,antiviral activity against SARS-CoV-2 infection,[4],did not exhibit significant antiviral activity
same,effect on virus: SARS-CoV-2,[4],−
same,amount of the EGFP mRNA,[5],significantly and markedly reduced
CCC(CC)COC(=O)[C@H](C)N[P@](=O)(OC[C@H]1O[C@@](C#N)(c2ccc3c(N)ncnn23)[C@H](O)[C@@H]1O)Oc1ccccc1 [remdesivir],IC50,[1],0.077 µM
same,IC50,[4],0.89 µM
same,IC50,[6],0.12 µM
same,amount of the EGFP mRNA,[5],substantially not detected
Ifenprodil tartrate,"Score (number of EGFP-positive cells, value subjected to correction between batches)",[1],214.49
